Laboratory results taken from patent publication US6114572A, “Substituted phenols and thiophenols useful as antioxidant agents” (priority 1997, dated 2000).

Legend:
[1] = test system: Male Sprague-Dawley Rats; assay: Serum clinical chemistries in male Sprague-Dawley rats; assay type: in vivo
Description: Measurement of Antioxidant Activity and Bioavailability of Compounds of Formula (1) By In Vivo Screening in Male Sprague-Dawley Rats
(§1) A typical experiment consists of 4-6 groups of rats (N=5 per group) with 1 group being a control which receives no MDL compound and the other groups being treated with 0.3% MDL compound. […] Mix the MDL compound with approximately 50 grams of food using a mortar and pestle. This is added to the remainder of the food and mixed for 3 hours on a rotary mixer. In the morning of day 5, anesthetize non-fasted rats with carbon dioxide, and collect blood by cardiac puncture. Sacrifice rats by cervical dislocation. Record body weights and liver weights in grams. Record food consumption as grams·day^-1 ·rat^-1. Deaths are recorded as mortality. Use aliquots of fresh serum for clinical chemistries, thiobarbituric acid reactive substances (TBARS) and conjugated diene measurements. Freeze aliquots of serum (~0.5 mL) and whole livers at -20° C. for compound and metabolite concentration determination at a later time.
Allow blood to clot at room temperature for 30 minutes. Obtain serum after centrifugation for 10 min at 4° C. at 3000 rpm in a Beckman J-6M/E centrifuge with a JS-4.2 rotor. […] Calculate ALP, ALT, and AST as units/L. Calculate cholesterol, triglycerides, and glucose as mg/dL.

[2] = test system: oxidation of serum lipids; assay: TBARS assay (oxidation of serum lipids) in male Sprague-Dawley rats; assay type: in vivo; conditions: feed or water, 96 h, rat serum, 4 days, N = 5, CuSO4-initiated, 3 hr, read-out: TBARS, percent of control
Description: as §1
In this assay the oxidation of serum lipids is initiated with CuSO4, resulting in the formation of aldehydes, such as malondialdehyde (MDA). Upon incubation with thiobarbituric acid, the absorbance of the aldehydes can be detected at 530-540 nm. […] Measure TBARS as follows: mix 100 μL of serum with 400 μL of a 5 mmol CuSO4 solution and incubate at 37° C. for 3 hr. Stop the reactions by addition of 1.0 mL of 20% trichloroacetic acid. […] Centrifuge samples briefly to pellet undissolved material, and transfer the supernatants to a 96-well microtiter plate. Measure absorbances at 540 nm using a Biotek model EL311 microplate reader. The nmoles of MDA produced are calculated from a standard curve of 0 to 10 nmoles of MDA prepared from malonaldehyde bis(dimethylacetal). Serum samples from treated rats are compared to serum samples from control rats that received no MDL compound.

[3] = Animal parameters (food, body weight, liver weight, mortality) in male Sprague-Dawley rats; assay type: in vivo
Text: (§2) A typical experiment consists of 4-6 groups of rats (N=5 per group) with 1 group being a control which receives no MDL compound and the other groups being treated with 0.3% MDL compound. Some of the compounds are either repeated at 0.3% or evaluated again at the lower dose of 0.1%. House Male Sprague-Dawley rats, 50-100 g, (Harlan Laboratories, Indianapolis, Ind.) in groups of 5, feeding ad libitum water and Purina Rodent chow (#5002) with or without MDL compound as a dietary admixture for 4 days. Make dietary admixtures (0.3%) by mixing 1.2 grams of an MDL compound with 400 grams of Purina rodent chow (#5002). Mix the MDL compound with approximately 50 grams of food using a mortar and pestle. This is added to the remainder of the food and mixed for 3 hours on a rotary mixer. In the morning of day 5, anesthetize non-fasted rats with carbon dioxide, and collect blood by cardiac puncture. Sacrifice rats by cervical dislocation. Record body weights and liver weights in grams. Record food consumption as grams·day^-1 ·rat^-1. Deaths are recorded as mortality. Use aliquots of fresh serum for clinical chemistries, thiobarbituric acid reactive substances (TBARS) and conjugated diene measurements. Freeze aliquots of serum (~0.5 mL) and whole livers at -20° C. for compound and metabolite concentration determination at a later time.

[4] = HPLC quantitation of compound and metabolite concentration in rat serum and liver; conditions: in vivo, 5760 min
Text: as §2
Determine serum and liver concentrations of parent compound and the metabolites, bisphenol and diphenoquinone, by reverse phase HPLC using a Waters 990 Powerline system. Homegenize livers (1 gram samples) with 5.0 mL PBS, pH 7.4, using a Polytron tissue homogenizer at setting 5 for 20-30 seconds. Extract serum or liver homogenates as follows: add 100 μL of either serum or homogenate to 2.0 mL diethyl ether:ethanol (3:1) while vortexing the tube. Cap the sample tubes and centrifuge for 10 min at 5° C. at 3500 rpm in a Beckman GPKR centrifuge with a GH 3.7 rotor. Transfer the supernatants to clean tubes and dry under N2. Reconstitute samples with 200 μL of acetonitrile:hexane:0.1 M ammonium acetate (90:6.5:3.5, by vol.). Then, inject 100 μL onto a Waters Deltapak C18-300 Å column, and elute with an 83% acetonitrile:17% water mobile phase at a flow rate of 1.5 mL/min. Record absorbances at the wavelengths of 240, 254, and 420nm. Calculate compound concentrations from known quantities of authentic parent compounds after correction for recovery. […]. Calculate concentrations as μg/mL of serum and μg/g of liver.

[5] = test system: VCAM-1; conditions: vascular endothelial cells; Mauri, N. et al.; cited from earlier work
[6] = test system: ICAM-1; conditions: vascular endothelial cells; Mauri, N. et al.; cited from earlier work
[7] = rat, 0.3% in diet, 4 days, N = 5

SMILES | AST (aspartate aminotransferase), percent of control ([1]; rat serum, 0.3% in diet, 4 days, N = 5) | ALP (alkaline phosphatase), percent of control ([1]; rat, in vivo) | ALT (alanine aminotransferase), percent of control ([1]; rat, in vivo) | GLUC (glucose), percent of control ([1]; rat, in vivo) | response vs control in vivo at 0.3 % in diet [2] | food (grams eaten per day per rat), percent of control ([3]; in vivo) | mortality at 96 h ([3]; in vivo, po, rat, 0.3% in diet, 4 days, N = 5, read-out: mortality (deaths per group)) | body wt., percent of control [3, 7] | lw/bw (liver weight/body weight), percent of control [3, 7] | Liver Bis (bisphenol concentration) [4] | Liver Parent (parent compound concentration) [4] | Liver Quin (diphenoquinone concentration) [4] | Serum Bis (bisphenol concentration) [4] | Serum Parent (parent compound concentration) [4] | Serum Quin (diphenoquinone concentration) [4] | inhibition of cytokine-induced expression of VCAM-1 [5] | inhibition of cytokine-induced expression of ICAM-1 [6]
CC(C)=CCC[C@H](C)CCOc1cc(C(C)(C)C)c(O)cc1C(C)(C)C [107,059] | 140% | 118% | 116% | 96% | 78% | 95% | 0% | 95% | 107% | 0 | 0 | 0 | 0 | 0 | 0 | – | –
CC(=O)N[C@@H](CS)C(=O)O [N-acetylcysteine] | – | – | – | – | – | – | – | – | – | – | – | – | – | – | – | inhibit cytokine-induced expression of VCAM-1 | not ICAM-1
S=C(S)N1CCCC1 [pyrollidine dithiocarbamate] | – | – | – | – | – | – | – | – | – | – | – | – | – | – | – | inhibit cytokine-induced expression of VCAM-1 | not ICAM-1
